Source: PubChem BioAssay (NCI)
Values joined by “and” are separate entries in the source; they are usually repeats but may differ in a detail not shown here. Equal entries are not always repeated.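 Briefly, cells in 96-well plates were exposed to five compound concentrations for 48 h, and endpoints were estimated by linear interpolation. GI50: concentration for 50% inhibition of growth. The concentration for full growth arrest is given as TGI.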

Columns and labels:
Assay in all cases: growth of human tumour cells (NCI), 48 h
[1] = tested on: 786-0 renal
[2] = tested on: A498 renal
[3] = tested on: A549 NSCLC
[4] = tested on: ACHN renal
[5] = tested on: BT-549 breast
[6] = tested on: CAKI-1 renal
[7] = tested on: CCRF-CEM leukemia
[8] = tested on: COLO 205 colon
[9] = tested on: DU-145 prostate
[10] = tested on: EKVX NSCLC
[11] = tested on: HCC-2998 colon
[12] = tested on: HCT-116 colon
[13] = tested on: HCT-15 colon
[14] = tested on: HL-60(TB) leukemia
[15] = tested on: HOP-62 NSCLC
[16] = tested on: HOP-92 NSCLC
[17] = tested on: HS 578T breast
[18] = tested on: HT29 colon
[19] = tested on: IGROV1 ovarian
[20] = tested on: K-562 leukemia
[21] = tested on: KM12 colon
[22] = tested on: LOX IMVI melanoma
[23] = tested on: M14 melanoma
[24] = tested on: MALME-3M melanoma
[25] = tested on: MCF7 breast
[26] = tested on: MDA-MB-231 breast
[27] = tested on: MDA-MB-435
[28] = tested on: MOLT-4 leukemia
[29] = tested on: NCI-H226 lung
[30] = tested on: NCI-H23 lung
[31] = tested on: NCI-H460 lung
[32] = tested on: NCI-H522 lung
[33] = tested on: NCI/ADR-RES ovarian
[34] = tested on: OVCAR-3 ovarian
[35] = tested on: OVCAR-4 ovarian
[36] = tested on: OVCAR-5 ovarian
[37] = tested on: OVCAR-8 ovarian
[38] = tested on: PC-3 prostate
[39] = tested on: RPMI-8226 leukemia
[40] = tested on: RXF 393 renal
[41] = tested on: SF-268 CNS
[42] = tested on: SF-295 CNS
[43] = tested on: SF-539 CNS
[44] = tested on: SK-MEL-2 melanoma
[45] = tested on: SK-MEL-28 melanoma
[46] = tested on: SK-MEL-5 melanoma
[47] = tested on: SK-OV-3 ovarian
[48] = tested on: SN12C renal
[49] = tested on: SNB-19 CNS
[50] = tested on: SNB-75 CNS
[51] = tested on: SR leukemia
[52] = tested on: SW-620 colon
[53] = tested on: TK-10 renal
[54] = tested on: U251 CNS
[55] = tested on: UACC-257 melanoma
[56] = tested on: UACC-62 melanoma
[57] = tested on: UO-31 renal
[58] = tested on: T-47D breast

SMILES: COC(=O)Nc1nc2ccc(C(=O)c3ccccc3)cc2[nH]1
- GI50 [1]: 593 nM and 720 nM
- TGI [1]: > 100000 nM
- GI50 [2]: 314 nM and 325 nM
- TGI [2]: 8900 nM and 3260 nM
- GI50 [3]: 605 nM and 534 nM
- TGI [3]: > 100000 nM
- GI50 [4]: 2230 nM and 1330 nM
- TGI [4]: > 100000 nM
- GI50 [5]: 1200 nM and 3270 nM
- TGI [5]: > 100000 nM and 52100 nM
- GI50 [6]: 469 nM and 347 nM
- TGI [6]: > 100000 nM
- GI50 [7]: 398 nM and 458 nM
- TGI [7]: > 100000 nM
- GI50 [8]: 331 nM and 274 nM
- TGI [8]: 1120 nM and 3740 nM
- GI50 [9]: 1060 nM and 259 nM
- TGI [9]: 22600 nM and 3000 nM
- TGI [10]: > 100000 nM
- GI50 [11]: 2310 nM and 2130 nM
- TGI [11]: > 100000 nM
- GI50 [12]: 470 nM and 353 nM
- TGI [12]: 50800 nM and > 36200 nM
- GI50 [13]: 451 nM and 210 nM
- TGI [13]: > 100000 nM
- GI50 [14]: 255 nM and 233 nM
- TGI [14]: 636 nM
- GI50 [15]: 610 nM and 3190 nM
- TGI [15]: > 100000 nM
- TGI [16]: > 85900 nM
- GI50 [17]: 518 nM and 200 nM
- TGI [17]: > 100000 nM
- GI50 [18]: 363 nM and 260 nM
- TGI [18]: 8210 nM and 11200 nM
- GI50 [19]: 1010 nM and 565 nM
- TGI [19]: > 100000 nM and 52900 nM
- GI50 [20]: 391 nM and 142 nM
- TGI [20]: > 56300 nM
- GI50 [21]: 402 nM and 130 nM
- GI50 [22]: 625 nM and 870 nM
- TGI [22]: > 100000 nM
- GI50 [23]: 427 nM and 257 nM
- TGI [23]: 6600 nM
- GI50 [24]: 559 nM and 201 nM
- TGI [24]: > 100000 nM
- GI50 [25]: 318 nM and 204 nM
- TGI [25]: > 100000 nM
- GI50 [26]: 1050 nM and 1250 nM
- TGI [26]: > 100000 nM
- GI50 [27]: 178 nM and 34.3 nM
- TGI [27]: 485 nM and 211 nM
- GI50 [28]: 536 nM and 393 nM
- TGI [28]: > 45800 nM
- GI50 [29]: 1050 nM and 441 nM
- TGI [29]: 28900 nM and > 100000 nM
- GI50 [30]: 747 nM and 1130 nM
- TGI [30]: > 100000 nM
- GI50 [31]: 397 nM and 330 nM
- GI50 [32]: 317 nM and 323 nM
- TGI [32]: 2360 nM
- GI50 [33]: 346 nM and 357 nM
- GI50 [34]: 324 nM and 172 nM
- TGI [34]: 864 nM and 415 nM
- GI50 [35]: 3880 nM and 3130 nM
- TGI [35]: > 100000 nM
- GI50 [36]: 5380 nM and 2500 nM
- TGI [36]: > 100000 nM
- GI50 [37]: 757 nM and 486 nM
- TGI [37]: > 100000 nM
- GI50 [38]: 405 nM and 250 nM
- TGI [38]: > 100000 nM and 19100 nM
- GI50 [39]: 903 nM and 297 nM
- TGI [39]: > 100000 nM and 15000 nM
- GI50 [40]: 368 nM
- TGI [40]: 2190 nM
- GI50 [41]: 1760 nM and 535 nM
- TGI [41]: > 100000 nM
- GI50 [42]: 400 nM and 255 nM
- TGI [42]: > 60500 nM
- GI50 [43]: 577 nM and 238 nM
- GI50 [44]: 473 nM and 583 nM
- TGI [44]: 22800 nM and > 100000 nM
- GI50 [45]: 651 nM and 464 nM
- TGI [45]: > 100000 nM
- GI50 [46]: 350 nM and 215 nM
- TGI [46]: 14000 nM and 1470 nM
- GI50 [47]: 435 nM and 467 nM
- GI50 [48]: 1090 nM and 620 nM
- TGI [48]: > 100000 nM
- GI50 [49]: 587 nM and 471 nM
- TGI [49]: > 100000 nM
- GI50 [50]: 256 nM and 86.6 nM
- TGI [50]: > 100000 nM and 17000 nM
- GI50 [51]: 168 nM and 44.4 nM
- TGI [51]: 28100 nM and > 100000 nM
- GI50 [52]: 410 nM and 259 nM
- TGI [52]: > 100000 nM
- TGI [53]: > 100000 nM
- GI50 [54]: 500 nM and 398 nM
- TGI [54]: > 100000 nM
- GI50 [55]: 38000 nM
- TGI [55]: > 100000 nM
- GI50 [56]: 476 nM and 463 nM
- TGI [56]: > 100000 nM
- TGI [57]: > 100000 nM

SMILES: Cc1cc2n[n+]3[n-]cc(-c4ccccc4)n3c2cc1[N+](=O)[O-]
- TGI [1]: > 100000 nM
- TGI [2]: > 100000 nM
- TGI [3]: > 100000 nM
- TGI [4]: > 100000 nM
- TGI [5]: > 100000 nM
- TGI [6]: > 100000 nM
- TGI [7]: > 100000 nM
- TGI [8]: > 100000 nM
- TGI [9]: > 100000 nM
- TGI [10]: > 100000 nM
- TGI [12]: > 100000 nM
- TGI [13]: > 100000 nM
- TGI [14]: > 100000 nM
- TGI [15]: > 100000 nM
- TGI [16]: > 100000 nM
- TGI [17]: > 100000 nM
- TGI [19]: > 100000 nM
- TGI [20]: > 100000 nM
- TGI [21]: > 100000 nM
- TGI [22]: > 100000 nM
- TGI [25]: > 100000 nM
- TGI [26]: > 100000 nM
- TGI [27]: > 100000 nM
- TGI [28]: > 100000 nM
- TGI [31]: > 100000 nM
- TGI [32]: > 100000 nM
- TGI [34]: > 100000 nM
- TGI [35]: > 100000 nM
- TGI [36]: > 100000 nM
- TGI [38]: > 100000 nM
- TGI [39]: > 100000 nM
- TGI [40]: > 100000 nM
- TGI [42]: > 100000 nM
- TGI [43]: > 100000 nM
- TGI [44]: > 100000 nM
- TGI [45]: > 100000 nM
- TGI [46]: > 100000 nM
- TGI [47]: > 100000 nM
- TGI [49]: > 100000 nM
- TGI [50]: > 100000 nM
- TGI [51]: > 100000 nM
- TGI [52]: > 100000 nM
- TGI [58]: > 100000 nM
- TGI [53]: > 100000 nM
- TGI [54]: > 100000 nM
- TGI [55]: > 100000 nM
- TGI [56]: > 100000 nM
- TGI [57]: > 100000 nM
